# Measurements taken from publication PMC11672294, “The Antipsychotic Drug Aripiprazole Suppresses Colorectal Cancer by Targeting LAMP2a to Induce RNH1/miR‐99a/mTOR‐Mediated Autophagy and Apoptosis” (Advanced Science, 2024).
# Structures can show the parent of a compound that is named as a salt.
# System: HT29
# Conditions: 72 h, relative to DMSO; 10 µM
# How it was run: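 HT29 viability used WST-1 reduction (2 h, 37 °C, A450) after 72 h of treatment; screening compounds were tested singly at 10 µM, with dimethyl sulfoxide as the comparison.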
row,SMILES,Relative cell viability (%)
1,CN1[C@@H]2CC[C@H]1C[C@@H](OC(=O)c1c[nH]c3ccccc13)C2 [Tropisetron],115.5%
2,"CC(C)Nc1cc(-c2c[nH]c(C(=O)N[C@H](CO)c3cccc(Cl)c3)c2)c(Cl)cn1 [Ulixertinib (BVD-523, VRT752271)]",30.34%
3,Cn1ncc(Cl)c1-c1cc(C(=O)N[C@H](CN)Cc2ccc(F)c(F)c2)oc1Cl [Uprosertib (GSK2141795)],4.701%
4,O=c1cc[nH]c(=O)[nH]1 [Uracil],73.94%
5,COc1ccccc1N1CCN(CCCNc2cc(=O)n(C)c(=O)n2C)CC1 [Urapidil HCl],222.9%
6,O=c1ccn([C@@H]2O[C@H](CO)[C@@H](O)[C@H]2O)c(=O)[nH]1 [Uridine],222.2%
7,CC(C)[C@H](N)C(=O)OCCOCn1cnc2c(=O)[nH]c(N)nc21 [Valaciclovir HCl],85.59%
8,C=C[C@]1(C)C[C@@H](OC(=O)CSC(C)(C)CNC(=O)[C@H](N)C(C)C)[C@]2(C)[C@H](C)CC[C@]3(CCC(=O)[C@H]32)[C@@H](C)[C@@H]1O [Valnemulin HCl],68.48%
9,CCCCC(=O)N(Cc1ccc(-c2ccccc2-c2nnn[nH]2)cc1)[C@H](C(=O)O)C(C)C [Valsartan],83.05%
10,C[C@@H]1COC(Nc2ccc3ncnc(Nc4ccc(OCc5nccs5)c(Cl)c4)c3c2)=N1 [Varlitinib],111.6%
11,"CCCS(=O)(=O)Nc1ccc(F)c(C(=O)c2c[nH]c3ncc(-c4ccc(Cl)cc4)cc23)c1F [Vemurafenib (PLX4032, RG7204)]",36.92%
12,Nc1ncnc2c1ncn2[C@@H]1O[C@H](CO)[C@@H](O)[C@@H]1O [Vidarabine],74.15%
13,COc1cccc(-c2ccc(NC(=O)C3=C(C(=O)O)CCC3)c(F)c2)c1 [Vidofludimus],104.7%
14,N#C[C@@H]1CCCN1C(=O)CNC12CC3CC(CC(O)(C3)C1)C2 [Vildagliptin (LAF-237)],108.7%
15,CC[C@]1(O)C[C@H]2CN(CCc3c([nH]c4ccccc34)[C@@](C(=O)OC)(c3cc4c(cc3OC)N(C=O)[C@H]3[C@@](O)(C(=O)OC)[C@H](OC(C)=O)[C@]5(CC)C=CCN6CC[C@]43[C@@H]65)C2)C1 [Vincristine],22.9%
16,CCC1=C[C@@H]2CN(C1)Cc1c([nH]c3ccccc13)[C@@](C(=O)OC)(c1cc3c(cc1OC)N(C)[C@H]1[C@@](O)(C(=O)OC)[C@H](OC(C)=O)[C@]4(CC)C=CCN5CC[C@]31[C@@H]54)C2 [Vinorelbine Tartrate],15.76%
17,CCOC(=O)C1=C[C@]2(CC)CCCN3CCc4c(n1c1ccccc41)[C@@H]32 [Vinpocetine],107.3%
18,CC[C@@H]1C(=O)N(C)c2cnc(Nc3ccc(C(=O)N[C@H]4CC[C@H](N5CCN(CC6CC6)CC5)CC4)cc3OC)nc2N1C(C)C [Volasertib (BI 6727)],88.41%
19,"CCn1c(=O)c(-c2cc[nH]n2)cc2c(C)nc(N)nc21 [Voxtalisib (XL765, SAR245409)]",31.62%
20,O=C[C@H](O)[C@@H](O)[C@H](O)CO [Xylose],114.9%
21,CC(C(=O)O)c1ccc2c(c1)CC(=O)c1ccccc1S2 (stereo not shown) [Zaltoprofen],88.35%
22,O=C1CCc2ccc(OCCCCN3CCN(c4cccc(Cl)c4Cl)CC3)cc2N1 [aripiprazole],49.03%
